“And” between values parts separate entries of the source, which are not always exact repeats. Identical values can stand only once. The source made the active and inactive calls. The rule behind the calls is not given here.
Each compound was assayed against Neurotensin receptor type 1 (Homo sapiens) (UniProt P30989) (assay: NTR1 agonists in analog series, SAR follow-up, imaging, image-based, set 3 (AID 602356)). Conditions: NTR1 image-based agonist assay, cellular imaging.
Chain of Neurotensin receptor type 1 (Homo sapiens) (P30989 whole entry, looked up): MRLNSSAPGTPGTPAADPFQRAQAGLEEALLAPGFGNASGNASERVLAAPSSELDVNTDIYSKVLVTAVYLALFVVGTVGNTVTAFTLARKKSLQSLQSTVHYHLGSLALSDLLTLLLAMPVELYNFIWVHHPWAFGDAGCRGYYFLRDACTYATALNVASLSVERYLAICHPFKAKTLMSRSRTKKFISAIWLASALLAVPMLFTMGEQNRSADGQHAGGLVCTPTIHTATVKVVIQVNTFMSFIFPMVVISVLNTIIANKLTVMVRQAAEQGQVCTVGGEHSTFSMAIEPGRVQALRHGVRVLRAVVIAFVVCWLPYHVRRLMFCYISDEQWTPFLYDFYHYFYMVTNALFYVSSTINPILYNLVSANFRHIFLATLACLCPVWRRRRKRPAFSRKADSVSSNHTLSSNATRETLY
`Cc1ccc(Cn2cc3c(-c4ccc(F)cc4)nnc-3c3cc4c(cc32)OCO4)cc1` was tested, and the EC50 was 5.49 µM and 8.2 µM.
In the case of `COc1cc2c3nnc(-c4ccc(C)c(C)c4)c-3cn(Cc3ccc(F)cc3)c2cc1OC`, the EC50 is reported as 16.2 µM.
For `COc1ccc2c3nnc(-c4ccc(C)cc4)c-3cn(Cc3ccc(C)cc3)c2c1`, the EC50 was 11.2 µM.
`Cc1ccc(Cn2cc3c(-c4ccc(F)cc4)nnc-3c3ccccc32)cc1` was tested, and the EC50 was > 80 µM (inactive).
For `COc1ccc(-c2nnc3c4cc(OC)c(OC)cc4n(Cc4ccc(F)cc4)cc2-3)cc1`, the EC50 was > 80 µM (inactive).
`CCOc1cc2nc(-c3ccc(OC)c(OC)c3)nc(N3CCN(c4ccccc4F)CC3)c2cc1OC` was tested, and the EC50 was > 80 µM (inactive).
`COc1cccc(OC)c1-c1nc(C(=O)O)cn1-c1ccncc1` was tested, and the EC50 was > 80 µM (inactive).
`COc1cc2c3nnc(-c4ccccc4)c-3cn(Cc3ccccc3)c2cc1OC` was tested, and the EC50 was 19.9 µM.
